Assays:
[1] = tested on: leaf pieces of the tobacco to which the present invention DNA (A1)S has been introduced; assay: Evaluation of the resistance utilizing a leaf piece of the present invention DNA (A1)S transgenic tobacco; assay type: cell-based; details: 1 point continuously grew, 0.5 halfly withered, 0 turned white and withered
Procedure: Next, other than culturing overnight the transgenic agrobacterium bearing the above plasmid at 30° C. in LB liquid medium containing 25 mg/L kanamycin, said agrobacterium were utilized to introduce genes into tobacco according to the method described in Example 19. There were obtained, respectively, transgenic tobaccos which have incorporated the T-DNA region of pBI-NdG6-rSt-657soy or pBI-NdG6-rSt12-657soy.
Leaves were taken from 35 transgenic tobaccos obtained in Example 47(9). Each leaf was divided into pieces in which each piece was 5 to 7 mm wide. Leaf pieces were planted onto MS agar medium containing 0, 0.05, 0.1 or 0.2 mg/L of compound (II) and cultured in the light at room temperature. On the 11th day of culturing, the herbicidal damage of each of the leaf pieces was observed. Further, leaf pieces were planted onto MS agar mediums containing 0, 0.01, 0.02, 0.05 or 0.1 mg/L of compound (XII) and cultured in the light at room temperature. On the 7th day of culturing, the herbicidal damage of each of the leaf pieces was observed. […] An average score for each group was determined by scoring 1 point to a leaf piece that continuously grew, 0.5 points to a halfly withered leaf piece in which chemical damage was observed, and 0 points to a leaf piece which turned white and had withered. […]

[2] = tested on: present invention protein (A2); assay: Metabolism of compounds by the present invention protein (A2), reaction solution, HPLC; assay type: in vitro ADME, Saccharopolyspora taberi JCM 9383t; details: 5 ppm of compound, components A, B, C, 20 μl supernatant fraction of Example 7(2), 30° C. for 10 minutes
[3] = target: T1, present protein (A10) (Streptomyces griseolus, UniProt P18326); assay type: in vitro ADME, Streptomyces griseolus ATCC 11796; details: 5 ppm of compound, components A, B, C, 20 μl supernatant fraction of Example 10(2), 30° C. for 10 minutes, HPLC
T1 construct: made in house; host or cells: E. coli JM109 carrying pKSN11796 or pKSN11796F; 150,000 x g supernatant (crude extract)

[4] = tested on: present invention protein (A14); assay: Metabolism of compounds by the present invention protein (A14), reaction solution, HPLC; assay type: in vitro ADME, Streptomyces glomerochromogenes IFO 13673t; details: 5 ppm of compound, components A, B, C, 20 μl supernatant fraction of Example 38(2), 30° C. for 10 minutes
[5] = tested on: present invention protein (A20); assay: Metabolism of compounds by the present invention protein (A20), reaction solution, HPLC; assay type: in vitro ADME, Streptomyces lanatus IFO 12787T; details: 12.5 ppm of compound, components A, B, C, 20 μl supernatant fraction of Example 57(2), 30° C. for 10 minutes
[6] = tested on: present invention protein (A25); assay: Metabolism of compounds by the present invention protein (A25), reaction solution, HPLC; assay type: in vitro ADME, Streptomyces steffisburgensis IFO 13446T; details: 12.5 ppm of compound, components A, B, C, 20 μl supernatant fraction of Example 67(2), 30° C. for 10 minutes

T1 sequence (P18326 whole entry H308Q): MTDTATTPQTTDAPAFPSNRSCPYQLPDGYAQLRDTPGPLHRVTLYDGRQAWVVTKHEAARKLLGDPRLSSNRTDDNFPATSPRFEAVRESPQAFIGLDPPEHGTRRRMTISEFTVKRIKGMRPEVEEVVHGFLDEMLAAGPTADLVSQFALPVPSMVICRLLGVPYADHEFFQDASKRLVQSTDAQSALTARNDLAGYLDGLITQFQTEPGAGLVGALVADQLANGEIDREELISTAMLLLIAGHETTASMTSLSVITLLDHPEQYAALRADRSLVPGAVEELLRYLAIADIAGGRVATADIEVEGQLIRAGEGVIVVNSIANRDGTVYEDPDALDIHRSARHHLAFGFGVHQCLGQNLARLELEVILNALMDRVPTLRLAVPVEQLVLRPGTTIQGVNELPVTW

| Compound | average score of leaf pieces compared with the wild type tobacco ([1]; MS agar mediums containing 0, 0.01, 0.02, 0.05 or 0.1 mg/L of compound (XII), 7th day) | concentration of the compound detected from metabolism solution (A2) compared to control solution (A2) [2] | concentration of the compound detected from metabolism solution (A10) compared to control solution (A10) [3] | concentration of the compound detected from metabolism solution (A14) compared to control solution (A14) [4] | concentration of the compound detected from metabolism solution (A20) compared to control solution (A20) [5] | concentration of the compound detected from metabolism solution (A25) compared to control solution (A25) [6] | average score of leaf pieces compared with the wild type tobacco ([1]; MS agar medium containing 0, 0.05, 0.1 or 0.2 mg/L of compound (II), 11th day) |
| --- | --- | --- | --- | --- | --- | --- | --- |
| Cn1c(C(F)(F)F)cc(=O)n(-c2cc(Oc3cccnc3OCC(=O)O)c(Cl)cc2F)c1=O [compound (XII)] | higher | lower | lower | lower | lower | lower | – |
| C[C@@H](Oc1cc(-n2c(=O)cc(C(F)(F)F)n(C)c2=O)c(F)cc1Cl)C(=O)O [compound (II)] | – | – | – | – | – | – | higher |
| Cn1c(C(F)(F)F)cc(=O)n(-c2cc(Oc3ccccc3OCC(=O)O)c(Cl)cc2F)c1=O [compound (XIII)] | – | lower | lower | lower | lower | lower | – |

From US8293979B2, “Weed controller metabolism proteins, genes, thereof and use of the same” (Sumitomo Chemical Company, Limited, priority 2001, dated 2012)
